# In ChEMBL document CHEMBL1157369, “Inhibition of type III secretion in Salmonella enterica serovar Typhimurium by small-molecule inhibitors” (Antimicrob Agents Chemother, 2007):
# Activity calls are given as the source filed them. The calls are words filed in the database; no cut-off is given here.
# Legend:
# [1] = system: Salmonella typhimurium; experiment: Suppression of 1.5 hrs 100 uM pretreated Salmonella enterica serovar Typhimurium 4/74 infection-induced intestinal secretory response in Friesian bull intestinal ligated loop model; assay type: functional, organism-based; settings: Salmonella enterica subsp. enterica serovar Typhimurium
# [2] = system: Salmonella enterica subsp. enterica serovar Typhimurium; experiment: Inhibition of T3SS-1 associated virulence phenotype in 1.5 hrs 100 uM pretreated Salmonella enterica serovar Typhimurium 4/74 assessed as reduction of contact dependent hemolysis of sheep erythrocytes relative to wild-type
# [3] = system: Salmonella typhimurium; experiment: Suppression of Salmonella enterica serovar Typhimurium 4/74 infection-induced intestinal secretory response in Friesian bull intestinal ligated loop model at 100 uM coadministered with bacterial challenge; assay type: functional, organism-based; settings: Salmonella enterica subsp. enterica serovar Typhimurium
# [4] = system: Salmonella typhimurium; experiment: Suppression of Salmonella enterica serovar Typhimurium 4/74 infection-induced inflammatory response in Friesian bull intestinal ligated loop model assessed as polymorphonuclear leucocyte influx at 100 uM coadministered with bacterial challenge; assay type: functional, organism-based; settings: Salmonella enterica subsp. enterica serovar Typhimurium
# [5] = system: Salmonella typhimurium; experiment: Reduction of Salmonella enterica serovar Typhimurium 4/74 invasion of human HeLa cells preincubated at 100 uM for 1 hr relative to control; assay type: functional, Salmonella enterica subsp. enterica serovar Typhimurium; parameters: scale not given: the % may be the effect or the level left
# [6] = system: Salmonella enterica subsp. enterica serovar Typhimurium; experiment: Inhibition of T3SS-1-mediated secretion of SipA protein in Salmonella enterica serovar Typhimurium 4/74 at 100 uM after 4 hrs by SDS-PAGE
# [7] = system: HeLa; experiment: Toxicity against human HeLa cells at 0.1 to 10 uM after 3 hrs; assay type: cell-based
# [8] = system: Salmonella enterica subsp. enterica serovar Typhimurium; experiment: Inhibition of T3SS-1-mediated secretion of SipA protein in Salmonella enterica serovar Typhimurium 4/74 after 4 hrs by SDS-PAGE
# [9] = system: Salmonella enterica subsp. enterica serovar Typhimurium; experiment: Inhibition of T3SS-1-mediated secretion of SipC protein in Salmonella enterica serovar Typhimurium 4/74 after 4 hrs by SDS-PAGE
# [10] = system: Salmonella enterica subsp. enterica serovar Typhimurium; experiment: Inhibition of T3SS-1-mediated secretion of SopE protein in Salmonella enterica serovar Typhimurium 4/74 after 4 hrs by SDS-PAGE
# [11] = system: Salmonella enterica subsp. enterica serovar Typhimurium; experiment: Inhibition of T3SS-1-mediated secretion of SipC protein in Salmonella enterica serovar Typhimurium 4/74 at 100 uM after 4 hrs by SDS-PAGE
# [12] = system: Salmonella typhimurium; experiment: Suppression of 1.5 hrs 100 uM pretreated Salmonella enterica serovar Typhimurium 4/74 infection-induced inflammatory response in Friesian bull intestinal ligated loop model assessed as polymorphonuclear leucocyte influx; assay type: functional, organism-based; settings: Salmonella enterica subsp. enterica serovar Typhimurium
# [13] = system: Salmonella typhimurium; experiment: Effect on viability of Salmonella enterica serovar Typhimurium 4/74 at 100 uM after 4 hrs; assay type: functional, organism-based; settings: Salmonella enterica subsp. enterica serovar Typhimurium
# [14] = system: Salmonella enterica subsp. enterica serovar Typhimurium; experiment: Inhibition of T3SS-1-mediated secretion of SopE protein in Salmonella enterica serovar Typhimurium 4/74 at 100 uM after 4 hrs by SDS-PAGE
SMILES,Activity [1],Activity [2],Activity [3],Activity [4],Activity [5] [%],Activity [6],Activity [7],Activity [8],%max [9],Activity [10],Activity [11],Activity [12],Activity [13],Activity [14]
O=C(N/N=C/c1cc(Br)cc(Br)c1O)c1ccc([N+](=O)[O-])cc1,Active,Active,inactive,inactive,47,Active,Non-toxic,Dose-dependent effect,Dose-dependent effect,Dose-dependent effect,Active,Active,inactive,Active
O=C(N/N=C/c1cc(Cl)cc(Cl)c1O)c1ccccc1,Active,Active,inactive,inactive,60,Active,Non-toxic,Dose-dependent effect,Dose-dependent effect,Dose-dependent effect,Active,Active,inactive,Active
